Assay results published in paper PMC8421406, “C9orf72-derived arginine-rich poly-dipeptides impede phase modifiers” (Nature Communications, 2021).
Where no end group is shown, it is not given here. MBP = maltose-binding protein; HA = HA epitope tag

What was measured:
[1] = system: MBP:FUS (full-length FUS droplets) / Kapβ2; assay: Turbidity assay of FUS droplet formation (OD 395 nm); format: biochemical; conditions: equimolar poly-dipeptide and Kapβ2 (8 μM)
Kapβ2 [2] = assay: Pull-down (on-column) binding assay, Kapβ2; conditions: purified recombinant proteins, 20 mM HEPES pH 7.4, 150 mM NaCl, equal molar, 20–30 min
Description: (§1) Unbound proteins were washed three times with the buffer.

EGFP = conditions: GST:PR18 on beads
Description: (§2) Four micrograms of GST proteins were immobilized on 30 μL of beads. […] Unbound proteins were washed three times with the buffer. Bound proteins and unbound proteins were separated by SDS-polyacrylamide gel electrophoresis and stained with Coomassie Brilliant Blue.

MBP = conditions: GST:PR18 on beads
Description: as §2

BSA = assay: Pull-down binding assay, BSA control; conditions: GST:PR18 on beads
Description: as §1

Lysozyme = assay: Pull-down binding assay, Lysozyme control; conditions: GST:PR18 on beads
Description: as §1

endogenous Kapβ2 = assay: Immunoprecipitation from HeLa cells; format: binding; conditions: expressed in HeLa cells; cytosol extract, Streptavidin Mag Sepharose
Description: The pcDNA5/FRT/TO-HA:SBP plasmid was generated by inserting the PCR-amplified HA:SBP sequence into the pcDNA5/FRT/TO vector (Thermo Fisher Scientific) between the HindIII and BamHI sites. The HA:SBP:GFP:PR20:HA plasmid was constructed by ligating the GFP:PR20:HA sequence into the pcDNA5/FRT/TO-HA-SBP between the EcoRV and XhoI sites. The HA:SBP:Kapβ2 plasmid was constructed by ligating the Kapβ2 sequence into the pcDNA5/FRT/TO-HA:SBP between the BamHI and NotI sites. HeLa cells were cultured in Dulbecco’s modified Eagle medium/10% fetal bovine serum at 37 °C with 5% CO2. Cells were transfected with plasmids using Lipofectamine 3000 (Thermo Fisher Scientific) according to the manufacturer’s instructions. HeLa cytosol extracts were prepared by Cytoplasmic Extraction buffer (CE; 10 mM HEPES pH 7.9, 60 mM KCl, 1 mM EDTA, 0.075% NP40, 1 mM DTT, and cOmplete™ EDTA-free protease inhibitor [Sigma-Aldrich]) for 10 min on ice and then separated from nuclear by centrifugation at 500 × g for 10 min. The resultant extracts were cleared by centrifugation at 20,400 × g for 10 min. The supernatant containing the HeLa cytosol extracts were mixed with the Streptavidin Mag Sepharose (GE Healthcare) and rotated at 4 °C overnight. The beads were finally washed five times with CE buffer. The anti-Kapβ2 (sc-166127, 1 : 1000) antibody was obtained from Santa Cruz Biotechnology. […]

Importinβ1 = assay: Pull-down binding assay, GST:Importinβ1; conditions: GST:Importinβ1 on beads
Description: as §1

Kapβ2 [3] = assay: Analytical ultracentrifugation; format: binding; conditions: 28 µM each, 25 °C, 20 mM HEPES pH 7.4, 150 mM NaCl
Description: AUC measurements were conducted with ProteomeLab XL-I (Beckman Coulter). […] The solutions were filled in 1.5 mm path-length titanium cells (Nanolytics). The measurements were performed with Rayleigh-interference optics at rotor speed of 125,000 × g (at 70 mm radius). The temperature was set at 25 °C. The weight concentration distribution as a function of sedimentation coefficient c(s20,w) and frictional ratio f/f0 were computed with SEDFIT[49] and Igor Pro software. The sedimentation coefficient was normalized to be the value at 20 °C in pure water s20,w. The molecular weight M was calculated with the corresponding peak value of s20,w and f/f0[49].

Kapβ2 [4] = assay: Isothermal titration calorimetry; format: binding; conditions: ITC, Supplementary Table 1 (not shown)
Description: ITC experiments were performed with a Malvern iTC200 calorimeter (Malvern Instruments). […] ITC experiments were performed at 25 °C with 19 rounds of 2 μL injections. Data were analyzed using Origin software.

Importinα = assay: Pull-down binding assay, GST:Importinα; conditions: GST:Importinα on beads
Description: as §1

## GA20
[1]
  Inhibition of the ability of Kapβ2 to melt FUS droplets (turbidity): did not

## GST:PR18: Glutathione S-transferase fusion of PR18 (PRPRPRPRPRPRPRPRPRPRPRPRPRPRPRPRPRPR; also: GST fusion, end not given here)
Kapβ2 [2]
  Binding to Kapβ2 (pull-down): bound Kapβ2
EGFP
  Binding to EGFP (pull-down): no interaction
MBP
  Binding to MBP (pull-down): no interaction
BSA
  Binding to BSA (pull-down): no interaction
Lysozyme
  Binding to Lysozyme (pull-down): no interaction

## HA:SBP:GFP:PR20:HA: PR20 fusion expressed from plasmid in HeLa cells ({HA-SBP-GFP}-PRPRPRPRPRPRPRPRPRPRPRPRPRPRPRPRPRPRPRPR-{HA}; not fully specified)
Endogenous Kapβ2
  Co-immunoprecipitation of endogenous Kapβ2: interaction between endogenous Kapβ2 and HA:SBP:GFP:PR20:HA

## MBP:PR8: maltose-binding protein fusion of 8 repeats of Pro-Arg ({MBP}-PRPRPRPRPRPRPRPR)
Kapβ2 [2]
  Binding to Kapβ2 (pull-down): did not

## MBP:PR18: maltose-binding protein fusion of 18 repeats of Pro-Arg (PRPRPRPRPRPRPRPRPRPRPRPRPRPRPRPRPRPR; also: MBP fusion, end not given here)
Importinβ1
  Binding to Importinβ1 (pull-down): interactions
Kapβ2 [2]
  Binding to Kapβ2 (pull-down): bound Kapβ2
Kapβ2 [3]
  Complex formation with Kapβ2 (AUC): complex formation
Kapβ2 [4]
  Relative binding strength to Kapβ2 vs full-length FUS: bound Kapβ2 more strongly than full-length FUS does
Importinα
  Binding to Importinα (pull-down): interactions
